Like-named read-outs stand apart in the source and are kept apart here.
What was measured:
P. falciparum strain 3D7 = assay: Anti-plasmodial activity assay (SYBR-Safe); format: cell-based, Plasmodium falciparum
Description: Next the effects of the thiamine/ThDP analogues on in vitro proliferation of the 3D7 strain of P. falciparum were determined. […] Parasite proliferation was measured by SYBR-Safe assay of parasite DNA.[11],[15]
(§1) Cell-based assays (Results)
(§2) Anti-plasmodial activity assay. This study used human malaria parasite P. falciparum strain 3D7 (chloroquine-sensitive) and the same strain expressing an extra copy of TPK with a GFP-tag ( PfTPK-GFP) generated as previously described. 9 The intraerythrocytic stage of the parasites were maintained essentially as previously described. 10 Compounds were tested at concentrations up to a highest final […]
(§3) were prepared in dimethyl sulfoxide (DMSO) followed by dilution in RPMI 1640 medium in the absence of thiamine or in the presence of 2.97 µM (or 297 µM) thiamine. The final concentration of DMSO that the parasites were exposed to never exceeded 0.05%. Two-fold serial dilutions were then performed, with each concentration tested in triplicate. The assay was performed as described 11 with some modifications. Experiments were initiated with parasites in the ring-stage, a parasitemia level of 0.5% and a haematocrit of 2%. Chloroquine (0.5 µM) was used as the positive control ( i.e. complete inhibition of parasite proliferation), and parasites maintained in the absence of any inhibitor represented 100% parasite proliferation. The final volume in each well was 200 µL. Plates were incubated at 37 °C, under an atmosphere of 96% nitrogen, 3% carbon dioxide and 1% oxygen. Parasite proliferation was measured by performing SYBR-Safe assay. 12 The concentration at which the compound suppresses […]
Excel and analysed by non-linear regression plot using GraphPad Prism. The data were averaged from three independent experiments. […]

HFF cells = assay: in vitro; format: cell-based, human; settings: IC50 (thiamine-free) vs HFF cytotoxicity
Description: as §1, §2, §3
Excel and analysed by non-linear regression plot using GraphPad Prism. The data were averaged from three independent experiments.
Cytotoxicity assay. This study used HFF cells (human foreskin fibroblasts) as described 13 with some modifications. The HFF cells were seeded in 96-well plates at a density of about 13 x 10^4 cells/mL.
Plates were incubated at 37 °C in a humidified 5% carbon dioxide incubator for 96 h. A sample of the supernatant (150 µL) was then carefully aspirated from each well and discarded. The plates were then stored at -80 °C. SYBR- Safe assay was used. The plates were thawed, SYBR-Safe lysis solution (150 µL) was added to each well and mixed via pipetting to ensure the HFF cells were detached from the plate and lysed. The plates were then processed as described for the anti-plasmodial assay.

[1] = test system: P. falciparum 3D7 transfected with an empty plasmid; assay: Anti-plasmodial activity, 3D7 transfected with an empty plasmid; format: cell-based; settings: Plasmodium falciparum, 3D7, read-out: IC50 anti-plasmodial activity, empty plasmid
Description: as §1, §2
as §3, with “Plates were incubated at 37 °C, under an atmosphere of 96% nitrogen, 3% carbon dioxide and 1% oxygen.” left out, “assay.” for “assay. 12 The concentration at which the compound suppresses”
(§4) Excel and analysed by non-linear regression plot using GraphPad Prism. […]

[2] = test system: P. falciparum 3D7 expressing PfTPK-GFP; assay: Anti-plasmodial activity, 3D7 expressing PfTPK-GFP; format: cell-based; settings: Plasmodium falciparum, 3D7, read-out: IC50 anti-plasmodial activity, PfTPK-GFP
Description: as §1, §2
as §3, with “Plates were incubated at 37 °C, under an atmosphere of 96% nitrogen, 3% carbon dioxide and 1% oxygen.” left out, “assay.” for “assay. 12 The concentration at which the compound suppresses”
as §4

Z. mobilis PDC = target: T1, Z. mobilis PDC (Zymomonas mobilis subsp. mobilis, UniProt P06672); assay: Z. mobilis PDC inhibitory activity assay (NADH consumption); format: biochemical; settings: for Ki: Z. mobilis PDC, determined according to the KM for ThDP; for IC50: bacterial PDC (Zymomonas mobilis), [ThDP] 10 μM
T1 construct: made in house
T1 sequence (P06672 1-568): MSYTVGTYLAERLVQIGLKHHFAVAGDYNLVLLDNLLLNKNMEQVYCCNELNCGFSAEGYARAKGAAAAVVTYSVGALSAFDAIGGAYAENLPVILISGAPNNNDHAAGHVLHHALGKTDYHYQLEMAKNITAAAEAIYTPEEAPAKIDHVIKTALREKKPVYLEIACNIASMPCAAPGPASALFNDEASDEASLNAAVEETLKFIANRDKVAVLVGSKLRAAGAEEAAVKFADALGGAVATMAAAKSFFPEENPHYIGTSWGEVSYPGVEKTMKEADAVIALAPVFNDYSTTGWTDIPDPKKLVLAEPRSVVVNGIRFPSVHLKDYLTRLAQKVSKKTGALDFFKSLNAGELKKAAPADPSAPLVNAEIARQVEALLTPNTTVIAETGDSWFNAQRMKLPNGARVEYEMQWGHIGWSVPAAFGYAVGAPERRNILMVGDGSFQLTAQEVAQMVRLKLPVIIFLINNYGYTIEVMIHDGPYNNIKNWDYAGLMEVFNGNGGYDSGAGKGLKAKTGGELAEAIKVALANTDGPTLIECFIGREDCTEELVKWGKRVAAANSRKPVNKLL

[3] = Plasmodium falciparum, 3D7, 3D7, [Thiamine] = 2.97 μM, read-out: IC50 of Suppression of P. falciparum proliferation, [Thiamine] = 2.97 μM
[4] = Plasmodium falciparum, 3D7, 3D7, [Thiamine] = 297 μM, read-out: IC50 of Suppression of P. falciparum proliferation, [Thiamine] = 297 μM
[5] = Plasmodium falciparum, 3D7, 3D7, thiamine-free medium, read-out: IC50 of Suppression of P. falciparum proliferation, Thiamine-free

| SMILES | IC50 (P. falciparum strain 3D7; [3]) [µM] | IC50 (P. falciparum strain 3D7; [4]) [µM] | IC50 (P. falciparum strain 3D7; [5]) [µM] | Selectivity Index (HFF cells) | IC50 [1] [µM] | IC50 [2] [µM] | Ki (Z. mobilis PDC) [µM] | IC50 (Z. mobilis PDC) [µM] | fold more potent than 17c at inhibiting proliferation of the parasites (P. falciparum strain 3D7) [fold] | IC50 (P. falciparum strain 3D7; 3D7, thiamine-free medium, read-out: IC50 of Suppression of P. falciparum proliferation, Thiamine-free) [µM] | fold more active than 24c (anti-plasmodial) (P. falciparum strain 3D7; thiamine-free culture medium) [fold] |
| --- | --- | --- | --- | --- | --- | --- | --- | --- | --- | --- | --- |
| Cc1ncc(Cn2cc(CCn3cc(-c4ccc(F)cc4)nn3)nn2)c(N)n1 [Compound 16a] | > 200 | > 200 | > 200 | – | – | – | – | – | – | – | – |
| Cc1ncc(Cn2cc(CCCn3cc(-c4ccc(F)cc4)nn3)nn2)c(N)n1 [Compound 16b] | > 200 | > 200 | > 200 | – | – | – | – | – | – | – | – |
| Cc1ncc(Cn2cc(CCCCn3cc(-c4ccc(F)cc4)nn3)nn2)c(N)n1 [Compound 16c] | 70 ± 8 | 89 ± 19 | 67 ± 5 | 0.7 | – | – | – | – | – | – | – |
| COc1ccc(-c2cn(CCc3cn(Cc4cnc(C)nc4N)nn3)nn2)cc1 [Compound 17a] | 156 ± 13 | 169 ± 11 | 129 ± 9 | – | – | – | – | – | – | – | – |
| COc1ccc(-c2cn(CCCc3cn(Cc4cnc(C)nc4N)nn3)nn2)cc1 [Compound 17b] | 78 ± 8 | 82 ± 11 | 51 ± 3 | 1.8 | – | – | – | – | – | – | – |
| COc1ccc(-c2cn(CCCCc3cn(Cc4cnc(C)nc4N)nn3)nn2)cc1 [Compound 17c] | 62 ± 7 | 69 ± 9 | 44 ± 2 | 1.1 | 38 ± 7 | 44 ± 9 | – | – | – | – | – |
| Cc1ncc(Cn2cc(CCCC(=O)NO)nn2)c(N)n1 [Compound 24b] | 1.3 ± 0.2 | 1.4 ± 0.4 | 0.9 to 3 | 16.7 | 1.7 ± 0.3 | 2 ± 0.6 | 0.68 | 20 ± 2 | ~50 | 0.9 ± 0.1 | 3 |
| Cc1ncc(Cn2cc(CCCCC(=O)NO)nn2)c(N)n1 [Compound 24c] | 3.8 ± 2 | 4 ± 1.8 | – | 14.7 | – | – | 0.89 | 25 ± 2 | – | – | – |

— article PMC10184313, “Inhibition of Thiamine Diphosphate-Dependent Enzymes by Triazole-Based Thiamine Analogues” (ACS Medicinal Chemistry Letters, 2023)
